The values that follow come from the METLIN SMRT retention time set (Domingo-Almenara et al. 2019).

This data set can be described thus: gradient 5% acetonitrile 3 min, to 50% in 2 min, to 85% in 15 min, held 3 min, 100 µL/min. To be noted: column: Zorbax Extend-C18 2.1 x 50 mm; eluents: water / acetonitrile, 0.1% formic acid. The gist of the method: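 In both positive and negative ionization mode, a quadrupole time-of-flight mass spectrometer coupled to HPLC analyzed pure standards run in mixtures of ~100 molecules. The Zorbax Extend-C18 column (2.1 × 50 mm, 1.8 μm) was operated at 100 μL/min with water and acetonitrile, each containing 0.1% formic acid. The dead volume was 40 μL and the dwell volume 900 μL. Retention time came from adduct peaks that were computationally picked and individually inspected by hand.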
Take `CCCn1c(=O)sc2cc(S(=O)(=O)N3CCC(C(=O)Nc4ccccc4)CC3)ccc21`: the RP-LC retention time was 965 s. In the case of `CCN(CC)c1ccc(NS(=O)(=O)c2cc(-c3nc(C)cs3)sc2C)c(C)c1` it was 750 s; in that of `CN(C)CCn1c2c(c(SCC(=O)Nc3ccc(Cl)cc3)nc1=O)CCC2`, 656 s. In turn, `CCC1(O)CCOC2(CCN(C(=O)C3CC=CC3)CC2)C1` (centres undefined) came in with an RP-LC retention time of 686 s. In the case of `O=C(NCC1CCCO1)C(=O)NCC1(O)CCOCC1` (centres undefined) it was 540 s; in that of `CCCCn1cc(S(=O)(=O)Nc2ccc(F)c(C)c2)c2cccnc21`, 995 s. Then `Cc1occc1-c1nnc(SC(C)C(=O)N2CCCc3ccccc32)o1` (centres undefined), with 981 s. Then `CC(C)(C)c1ccc(O)c(NC(=O)c2cn(-c3ccc(S(=O)(=O)N4CCCC4)cc3)cn2)c1`, with 1020 s.

The compound `COc1ccc(S(=O)(=O)NCc2ccc3c(c2)CCN3C(=O)C(C)C)cc1` gave an RP-LC retention time of 861 s. In turn, `N#CC1=C(SCC(=O)NCc2ccccc2)NC(=O)CC1c1ccco1` (centres undefined) showed an RP-LC retention time of 770 s. Then `O=C(NC1CCCCC1)N1CCC(N2C(=O)C3(CCCCC3)C2c2ccncc2)CC1` (centres undefined), with 659 s. In turn, `O=C(CN1C(=O)COc2ccc(C(=O)N3CCCCC3)cc21)NCc1ccco1` registered an RP-LC retention time of 691 s.

`CCC(=O)Nc1ccc2c(c1)Sc1ncccc1C(=O)N2C` yielded an RP-LC retention time of 630 s. In the case of `CCn1c(N2CCN(C(=O)Nc3cc(OC)c(OC)c(OC)c3)CC2)nc2ccccc21` it was 623 s; in that of `Cn1nc(-c2nnc(-c3ccccc3Cl)o2)c2c1CCN(C(=O)c1ccc(F)c(F)c1)C2`, 877 s; in that of `COc1ccc(OC)c(-c2csc(Nc3ccc(Br)cn3)n2)c1`, 1190 s. `CCSc1cccc(C(=O)N2CC(=O)Nc3ccccc32)c1` gave an RP-LC retention time of 756 s.

Consider `Cc1cc(-c2nnc(-c3ccco3)o2)c(C)n1CC(=O)NCc1ccc(F)cc1`, for which the RP-LC retention time came out at 849 s. In the case of `Cc1nc(N(C)C(=O)Cc2ccc(-c3ccccn3)cc2)sc1S(N)(=O)=O` it was 699 s. Then `CCOC(=O)C(=O)Nc1ccc(OC)c(OC)c1`, with 650 s; and `CC(C)CCNC(=O)N1CCC2(CC1)C(=O)N(C)c1ccccc12`, with 813 s; and `c1ccc(Cn2cnnc2C2CCN(CC3CC3)CC2)cc1`, with 566 s.

On to `Cc1cc(C)cc(NC(=O)C2CCCN(c3ncnc4c3nc3n4CCCCC3)C2)c1` (centres undefined), for which the RP-LC retention time is 907 s. In the case of `CCC(C)NC(=O)N1CCc2c(c(-c3nc(C)no3)nn2C)C1` (centres undefined) it was 673 s; in that of `O=C(O)c1cc(N2CCCN(c3ncccn3)CC2)ccc1NC(=O)C1CC1`, 702 s; in that of `COc1ccc(NC(=O)c2cnc3c(c2)c(=O)n(C)c(=O)n3-c2ccccc2)cc1OC`, 771 s.

On to `CC(=O)c1cccc(Nc2c(C(=O)OC(C)C)cnc3nc(C)ccc23)c1`, for which the RP-LC retention time is 694 s. With `COc1ccc(C2CCCN2C(=O)c2cc(-c3ccco3)on2)cc1` (centres undefined), the RP-LC retention time came out at 961 s.

In turn, `COc1ccc(NS(=O)(=O)c2cc(-c3noc(C(=O)N4CCCC4)n3)sc2C)cc1OC` displayed an RP-LC retention time of 842 s. Then `Cc1ccc(CNC(=O)CN2C(=O)CCc3cc(S(=O)(=O)N4CCCCC4C)ccc32)cc1` (centres undefined), with 916 s; and `COc1cc(NC(=O)N2CCN(c3cc(-c4ccccc4)ncn3)CC2)cc(OC)c1`, with 649 s. `CCN1CCN(C(=O)CN2c3ccc(F)cc3-c3ccccc3S2(=O)=O)CC1` yielded an RP-LC retention time of 639 s. Then `Cn1nc(C(=O)N2CCOCC2)c2c1CCN(C(=O)Nc1cccc(Br)c1)C2`, with 726 s; and `COc1ccc2[nH]cc(CCN3CC(C(=O)Nc4cc(F)cc(F)c4)CC3=O)c2c1` (centres undefined), with 821 s.

On to `CCOc1cc(CNC(=O)C2CCCN(C(=O)c3[nH]c(C)cc3C)C2)cc(OCC)c1OCC` (centres undefined), for which the RP-LC retention time came out at 876 s. In the case of `Cc1ccc(N2CCN(C(=O)c3ccc4ncnc(N5CCCC5)c4c3)CC2)cc1`, the RP-LC retention time was 668 s. In the case of `Cc1cccc(NC(=O)C2CCN(S(=O)(=O)c3cccc4nsnc34)CC2)c1C` it was 895 s; in that of `Cc1cccc(N2CC(C(=O)N(C)C)CC2=O)c1` (centres undefined), 660 s; in that of `O=C(c1ccc2c(=O)n3c(nc2c1)CCCC3)N1CCN(c2ccccn2)CC1`, 564 s. In the case of `O=C(c1ccc(F)cc1F)N1CCN(c2cc(-c3ccc(F)cc3)[nH]n2)CC1` it was 736 s. In the case of `CCOC(=O)CNC(=O)N1CCc2c(c(C(=O)N3CCCC3)nn2C)C1` it was 637 s. Compound `Cc1nc(-c2cnccn2)nc2c1CCC(=O)N2Cc1ccc(F)cc1` gave an RP-LC retention time of 732 s. In the case of `CS(=O)(=O)c1ccc(NC(=O)C2CN(C(=O)c3ccc(F)c(F)c3)C2)cc1` it was 661 s; in that of `CSc1ccc(-c2nc3ccccn3c2Nc2ccc(Cl)cc2)cc1`, 779 s.

`CCCc1noc(-c2cccnc2N2CCCN(Cc3cccc(F)c3)CC2)n1` displayed an RP-LC retention time of 722 s. `CCOc1ccccc1NC(=O)N1CCN(C(=O)N2C[C@H]3C[C@@H](C2)[C@H]2CCCC(=O)N2C3)CC1` yielded an RP-LC retention time of 687 s. In turn, `OC(C#Cc1ccccc1)(c1ccccc1)c1ccccc1` displayed an RP-LC retention time of 764 s. In the case of `CCOC(=O)c1nn(-c2ccc(F)cc2)c(=O)cc1NCC1CCCO1` (centres undefined) it was 766 s; in that of `CCS(=O)(=O)N1CC(=O)N(c2ccc(Cl)cc2)C(C)(C(=O)NCc2ccccc2)C1` (centres undefined), 848 s. Turning to `CC(C)c1ccc2c(c1)-c1ccccc1S(=O)(=O)N2CC(=O)N1CC(=O)Nc2ccccc21`, the RP-LC retention time turned out to be 927 s.

In the case of `CCc1cc(=O)n(CC(=O)NCc2ccc(F)cc2F)c(N)n1`, the RP-LC retention time is 812 s. In the case of `Cc1noc(-c2ccnc(-n3cnc(C(=O)NC4CCCCC4)c3)c2)n1` it was 776 s; in that of `CCOC(=O)c1c(C)[nH]c(C(=O)N2CCC(C(C)C(=O)NCc3ccc(OC(C)C)cc3)CC2)c1C` (centres undefined), 892 s; in that of `CC(C)NC(=O)N1CCCC(c2cccc(C(=O)NCc3ccc(Cl)cc3)c2)C1` (centres undefined), 923 s. Compound `CCn1cnc(S(=O)(=O)N2CCC(C(=O)Nc3ccc(OC)c(OC)c3)CC2)c1` yielded an RP-LC retention time of 704 s. Then `CSc1ccc(-c2noc(CN3C(=O)COc4ccc(C(C)(C)C)cc43)n2)cc1`, with 1300 s; and `Cc1ccc(-n2c(N3CCCC(C(=O)NCc4ccccc4Cl)C3)nc3ccsc3c2=O)cc1` (centres undefined), with 946 s; and `CCCS(=O)(=O)N1CC(N(C)Cc2cccnc2)C1`, with 559 s. In the case of `CC1CN2C=NC(N3CCN(C(=O)Nc4ccc(C(F)(F)F)cc4)CC3)=CC2=N1` (centres undefined) it was 687 s. In the case of `COc1ccc(S(=O)(=O)N2CCN(c3cc(-n4ccnc4)nc(C)n3)CC2)cc1Cl` it was 664 s; in that of `COc1cc(NC(=O)C(C)Oc2ccc(=O)n(-c3ccc(F)cc3)n2)cc(OC)c1OC` (centres undefined), 719 s. Regarding `CCOc1ccc2nc(C(=O)NCc3cccc(Br)c3)cn2n1`, the RP-LC retention time amounted to 944 s.

`CC1CCN(c2ccc(N3CCN(S(=O)(=O)c4cc(F)ccc4F)CC3)nn2)CC1` yielded an RP-LC retention time of 606 s.

For `CNC(=O)[C@@H]1C[C@H](Oc2ccccc2)CN1S(=O)(=O)N(C)C`, the RP-LC retention time was found to be 702 s. Then `Cc1noc(C)c1C1CCCN1C(=O)c1ccnn1C` (centres undefined), with 638 s. The compound `Cc1sc(-c2nnc(C3CC3)o2)cc1NC(=O)c1ccnn1C` had an RP-LC retention time of 796 s. In the case of `CCOC(=O)c1cc2c([nH]c1=O)CC(c1cccc(C)c1)CC2=O` (centres undefined) it was 653 s; in that of `CCCCn1c(CN2CCOCC2)nc2cc(NC(=O)CC(C)C)ccc21`, 665 s. `O=C(C1CC(=O)N(c2ccc(F)cc2)C1)N1CCC(c2c[nH]c3ccccc23)CC1` (centres undefined) returned an RP-LC retention time of 810 s. Then `O=C1CO[C@@H](C(=O)O)[C@H](c2ccccc2)N1`, with 576 s. Take `CCN1CCC2(CC1)OC(=O)C(C)=C2C(=O)NCCCN1CCN(c2cc(C)ccc2C)CC1`: the RP-LC retention time stood at 586 s.

Compound `Cc1ccc(Sc2nccnc2N2CCCC(C(=O)Nc3ccc(F)cc3C)C2)cc1` (centres undefined) came in with an RP-LC retention time of 1140 s. As for `O=C(CNC(=O)c1cc(F)cc(F)c1)Nc1nc2ccccc2[nH]1`, the RP-LC retention time was found to be 642 s. In the case of `Cn1cc(S(=O)(=O)N2CCCCC2)cc1C(=O)Nc1ccc2c(c1)OCO2` it was 924 s; in that of `O=C(C(=O)N1CCN(c2ccccc2)CC1)c1c[nH]c2ccccc12`, 845 s. Then `NC(=O)C1CCN(C(=O)C2COC3(CCCCC3)N2C(=O)c2ccccc2)CC1` (centres undefined), with 606 s; and `COc1cc(OC)cc(-c2nc(Cn3cnc4ccccc4c3=O)no2)c1`, with 871 s. In the case of `O=C(C1=CN(c2ccc3c(c2)OCO3)c2cc(F)ccc2S1(=O)=O)N1CCCC1` it was 796 s; in that of `N#Cc1ccccc1NC(=O)COc1ccc(Cl)cc1Cl`, 719 s.
